Reference: publication PMC10046946, “Novel Phthalic-Based Anticancer Tyrosine Kinase Inhibitors: Design, Synthesis and Biological Activity” (Current Issues in Molecular Biology, 2023)

Legend:
[1] = tested on: K562 (chronic myelogenous leukemia); experiment: MTT cell proliferation assay, K562; assay type: cell-based; details: Homo sapiens, K562, 72 h of exposition, read-out: Anti-proliferative activity IC50, K562
Protocol: (§1) Tests to determine the effects of the synthesized compounds on cell viability and the half-maximal inhibitory concentration (IC50) were performed using the MTT assay, as described in our prior work.
(§2) The target compounds 5, 6, 8–12, 14, 15, 17–22 and 24–26 were tested for antiproliferative activity against six cancer cell lines: K562 (chronic myelogenous leukemia), HL-60 (promyelocytic leukemia), MCF-7 (breast adenocarcinoma), HepG2 (human liver cancer), A549 (lung carcinoma) and OKP-GS (renal cell carcinoma). The RPMI 1788 cells (B lymphocyte, human) were used as a control to evaluate the system toxicity of the studied compounds to normal cells. Sorafenib, nilotinib and lapatinib were utilized as reference standards for comparison.

[2] = tested on: HL-60 (promyelocytic leukemia); experiment: MTT cell proliferation assay, HL-60; assay type: cell-based; details: Homo sapiens, HL-60, 72 h of exposition, read-out: Anti-proliferative activity IC50, HL-60
Protocol: as §1, §2

[3] = tested on: MCF-7 (breast adenocarcinoma); experiment: MTT cell proliferation assay, MCF-7; assay type: cell-based; details: Homo sapiens, MCF7, MCF-7, 72 h of exposition, read-out: Anti-proliferative activity IC50, MCF-7
Protocol: as §1, §2

[4] = tested on: HepG2 (human liver cancer); experiment: MTT cell proliferation assay, HepG2; assay type: cell-based; details: Homo sapiens, HepG2, 72 h, HepG2, 72 h of exposition, read-out: Anti-proliferative activity IC50, HepG2
Protocol: as §1, §2

A549 (lung carcinoma) = experiment: MTT cell proliferation assay, A549; assay type: cell-based; details: Homo sapiens, A549, 72 h of exposition, read-out: Anti-proliferative activity IC50, A549
Protocol: as §1, §2

[5] = tested on: OKP-GS (renal cell carcinoma); experiment: MTT cell proliferation assay, OKP-GS; assay type: cell-based; details: 72 h of exposition, read-out: Anti-proliferative activity IC50, OKP-GS
Protocol: as §1, §2

[6] = tested on: RPMI 1788 cells (B lymphocyte, human); experiment: MTT cell proliferation assay, normal RPMI 1788 cells; assay type: cell-based; details: normal human lymphoblastoid cells RPMI 1788, 72 h of exposition, read-out: Anti-proliferative activity IC50, RPMI 1788
Protocol: as §1, §2

K562 cells [7] = experiment: Cell cycle analysis (propidium iodide, flow cytometry); assay type: cell-based; details: 48 h
Protocol: Tumor cells were seeded on a 6-well plate at a density of 400,000 per well for K562. Test compounds 5, 14 and 15 were added at concentrations of 1, 5 and 10 μM in duplicate for 48 h. The methodology and analysis of the obtained data were performed as described in our prior work.
As shown above, compounds 5, 14 and 15 had significant antiproliferative activities, which is why their influences on the cell cycle and apoptosis level were determined, with the aim of understanding whether these effects are cytostatic or cytotoxic. In the cell cycle experiments, K562 cells were used. […] For the determination of changes in the distribution of cells in the phases of the cell cycle, the widely employed method of staining the cells with propidium iodide was used.

K562 cells [8] = experiment: Annexin V-FITC/PI apoptosis assay; assay type: cell-based; details: 48 h
Protocol: K562 tumor cells were plated on a 6-well plate at a density of 400,000 per well. Test compounds 5, 14 and 15 were added at concentrations of 1, 5 and 10 μM in duplicate for 48 h. The methodology and analysis of the obtained data were performed as described in our prior work.
The effects of compounds 5, 14 and 15 on cell apoptosis were examined using the Annexin V-FITC Kit (Beckman Coulter, Brea, CA, USA) according to the protocols provided. The Annexin V-FITC Kit is an apoptosis detection kit based on the binding properties of annexin V to phosphatidylserine (PS) and on the DNA intercalating capability of propidium iodide (PI). K562 cells were treated with compound 5, 14 and 15 at 1, 5 and 10 μM for 48 h, after which annexin V/PI binding was measured by flow cytometry.

K562 cell line = experiment: ROS determination (DCFH-DA, flow cytometry); assay type: cell-based; details: 48 h
Protocol: The redox status was assessed using the K562 cell line. […] Then, the cells were washed to remove the 2′,7′-dichlorodihydrofluorescein diacetate by centrifugation at 1000 rpm for 5 min. The measurements were conducted using a Cytomics FC500 Beckman Coulter flow cytometer (FL1 channel for DCF).

PDGFRα = biological target: T1, PDGFRα (Homo sapiens, UniProt P16234); experiment: ADP-Glo kinase assay, PDGFRα; assay type: biochemical
T1 construct: purchased Promega
Protocol: (§3) The ADP-Glo kinase assay (Promega, Madison, WI, USA) was used to screen compounds 5, 8–10, 14, 17, 19 and 24 for the tyrosine kinase (Kinase Selectivity Profiling System TK-1, Promega, Madison, WI, USA) and serine/threonine kinase (Kinase Selectivity Profiling System Other/CK-1, Promega, Madison, WI, USA) inhibition effects according to the manufacturer’s technical manual. The luminescence data were analyzed as described in our prior work.
(§4) The selectivity of the potential kinase inhibitor against a specific protein kinase or a specific family of kinases was investigated using the Kinase Selectivity Profiling System TK-1, Other/CK-1 and ADP-Glo™ Kinase assay kit (Promega, Madison, WI, USA).

PDGFRβ = biological target: T2, PDGFRβ (Homo sapiens, UniProt P09619); experiment: ADP-Glo kinase assay, PDGFRβ; assay type: biochemical
T2 construct: purchased Promega
Protocol: as §3, §4

T1 sequence (P16234 24-1089): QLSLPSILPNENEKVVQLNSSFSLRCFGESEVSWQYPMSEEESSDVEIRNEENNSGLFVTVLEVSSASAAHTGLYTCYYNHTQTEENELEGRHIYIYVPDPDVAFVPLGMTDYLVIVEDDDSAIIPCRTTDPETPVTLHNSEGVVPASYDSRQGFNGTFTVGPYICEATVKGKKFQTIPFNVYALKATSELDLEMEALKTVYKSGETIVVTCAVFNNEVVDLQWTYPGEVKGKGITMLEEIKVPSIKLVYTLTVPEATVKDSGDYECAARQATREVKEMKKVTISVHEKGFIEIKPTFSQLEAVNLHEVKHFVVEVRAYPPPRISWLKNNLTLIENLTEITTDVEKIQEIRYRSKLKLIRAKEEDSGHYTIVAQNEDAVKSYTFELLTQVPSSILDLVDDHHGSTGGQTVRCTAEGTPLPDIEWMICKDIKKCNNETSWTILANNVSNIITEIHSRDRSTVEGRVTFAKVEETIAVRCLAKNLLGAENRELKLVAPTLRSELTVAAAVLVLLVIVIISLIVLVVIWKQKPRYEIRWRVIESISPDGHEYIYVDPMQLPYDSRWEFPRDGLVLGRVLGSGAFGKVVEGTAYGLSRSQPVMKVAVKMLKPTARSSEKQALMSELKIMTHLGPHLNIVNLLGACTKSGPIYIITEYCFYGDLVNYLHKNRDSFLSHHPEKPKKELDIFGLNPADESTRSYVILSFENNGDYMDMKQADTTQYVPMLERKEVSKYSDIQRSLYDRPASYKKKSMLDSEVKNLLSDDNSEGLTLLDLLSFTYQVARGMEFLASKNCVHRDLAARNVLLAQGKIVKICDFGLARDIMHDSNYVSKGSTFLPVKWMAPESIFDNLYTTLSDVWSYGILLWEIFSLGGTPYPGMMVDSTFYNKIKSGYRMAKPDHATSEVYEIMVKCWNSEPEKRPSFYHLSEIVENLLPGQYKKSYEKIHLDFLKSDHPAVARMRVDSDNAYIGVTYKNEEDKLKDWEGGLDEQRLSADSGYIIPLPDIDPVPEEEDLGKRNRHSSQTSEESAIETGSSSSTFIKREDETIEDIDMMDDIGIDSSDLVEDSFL
T2 sequence (P09619 33-1106): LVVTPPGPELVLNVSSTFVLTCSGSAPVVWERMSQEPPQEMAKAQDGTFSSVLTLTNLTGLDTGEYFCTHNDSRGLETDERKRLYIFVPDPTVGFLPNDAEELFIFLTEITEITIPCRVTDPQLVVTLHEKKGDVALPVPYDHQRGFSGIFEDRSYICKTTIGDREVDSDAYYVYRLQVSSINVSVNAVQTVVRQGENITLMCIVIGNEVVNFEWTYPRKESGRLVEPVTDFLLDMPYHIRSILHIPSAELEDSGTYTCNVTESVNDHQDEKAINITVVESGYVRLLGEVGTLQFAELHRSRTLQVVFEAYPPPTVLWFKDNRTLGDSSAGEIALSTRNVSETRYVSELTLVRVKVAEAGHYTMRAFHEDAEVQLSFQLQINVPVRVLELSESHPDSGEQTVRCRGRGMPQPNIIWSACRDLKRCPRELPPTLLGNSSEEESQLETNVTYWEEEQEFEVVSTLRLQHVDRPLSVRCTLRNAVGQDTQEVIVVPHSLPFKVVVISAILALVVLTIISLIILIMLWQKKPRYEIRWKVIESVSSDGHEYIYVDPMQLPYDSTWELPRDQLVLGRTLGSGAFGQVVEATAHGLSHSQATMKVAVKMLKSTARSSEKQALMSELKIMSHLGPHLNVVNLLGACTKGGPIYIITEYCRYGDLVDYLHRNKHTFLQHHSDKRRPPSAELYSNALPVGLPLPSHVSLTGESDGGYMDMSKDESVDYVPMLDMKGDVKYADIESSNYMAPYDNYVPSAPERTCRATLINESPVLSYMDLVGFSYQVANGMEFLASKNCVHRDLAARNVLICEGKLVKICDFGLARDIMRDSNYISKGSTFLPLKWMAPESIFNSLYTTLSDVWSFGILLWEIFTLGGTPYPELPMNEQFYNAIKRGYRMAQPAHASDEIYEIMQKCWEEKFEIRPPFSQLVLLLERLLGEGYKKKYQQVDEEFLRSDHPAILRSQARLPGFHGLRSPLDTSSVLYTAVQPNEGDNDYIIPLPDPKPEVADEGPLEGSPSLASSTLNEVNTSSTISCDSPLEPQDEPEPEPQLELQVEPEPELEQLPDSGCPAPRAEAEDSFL

Row | Structure (SMILES) | IC50 [1] [µM] | IC50 [2] [µM] | IC50 [3] [µM] | IC50 [4] [µM] | IC50 (A549 (lung carcinoma)) [µM] | IC50 [5] [µM] | IC50 [6] [µM] | melting point [°C] | also measured
1 | O=C(Nc1cccc(C(F)(F)F)c1)c1ccc(C(=O)N2CCN(C(=O)c3ccccc3F)CC2)cc1 [Compound 20, 4-(4-(2-Fluorobenzoyl)piperazine-1-carbonyl)-N-(3-(trifluoromethyl)phenyl)benzamide] | > 50 | > 50 | > 50 | > 50 | > 50 | > 50 | > 50 | 215 to 217 | –
2 | CNC(=O)c1cc(Oc2ccc(NC(=O)c3ccc(C(=O)Nc4cccc(C(F)(F)F)c4)cc3)cc2)ccn1 [Compound 18, N1-(4-((2-(methylcarbamoyl)pyridin-4-yl)oxy)phenyl)-N4-(3-(trifluoromethyl)phenyl)terephthalamide] | 26.9 | > 50 | > 50 | 45.9 ± 1.83 | > 50 | 34.4 ± 2.52 | 46 ± 1.76 | – | –
3 | COc1ccc(C(=O)N2CCN(C(=O)c3cccc(C(=O)Nc4cc(-n5cnc(C)c5)cc(C(F)(F)F)c4)c3)CC2)cc1 [Compound 13, 3-(4-(4-Methoxybenzoyl)piperazine-1-carbonyl)-N-(3-(4-methyl-1H-imidazol-1-yl)-5-(trifluoromethyl)-phenyl)benzamide] | – | – | – | – | – | – | – | 144 to 146 | –
4 | Cc1cn(-c2cc(NC(=O)c3cccc(C(=O)N4CCN(C(=O)c5cccc(F)c5)CC4)c3)cc(C(F)(F)F)c2)cn1 [Compound 15, 3-(4-(3-Fluorobenzoyl)piperazine-1-carbonyl)-N-(3-(4-methyl-1H-imidazol-1-yl)-5-(trifluoromethyl)phenyl)-benzamide] | 10.5 ± 2.54 | 34.8 ± 4.7 | 27.38 ± 0.26 | 45.8 ± 1.76 | > 50 | > 50 | 29.4 ± 1.79 | 130 to 135 | Apoptosis, % (cell cycle analysis) (K562 cells [7]; K562, 1 µM): 17.90%; G1, % (K562 cells [7]; K562, 1 µM): 30.15%; G2/M, % (K562 cells [7]; K562, 1 µM): 48.54%; S, % (K562 cells [7]; K562, 1 µM): 21.31%; Apoptosis, % (cell cycle analysis) (K562 cells [7]; K562, 5 µM): 20.54%; G1, % (K562 cells [7]; K562, 5 µM): 34.76%; G2/M, % (K562 cells [7]; K562, 5 µM): 53.65%; S, % (K562 cells [7]; K562, 5 µM): 11.59%; Apoptosis, % (cell cycle analysis) (K562 cells [7]; K562, 10 µM): 32.72%; G1, % (K562 cells [7]; K562, 10 µM): 28.85%; G2/M, % (K562 cells [7]; K562, 10 µM): 62.99%; S, % (K562 cells [7]; K562, 10 µM): 8.16%; normal live cells (living cells) (K562 cells [8]; K562, 1 µM): 74.91%; normal live cells (living cells) (K562 cells [8]; K562, 5 µM): 68.41%; normal live cells (living cells) (K562 cells [8]; K562, 10 µM): 60.97%; ROS Level, % of Control (K562 cell line; K562, 5 µM): 92.89 % of Control; ROS Level, % of Control (K562 cell line; K562, 10 µM): 87.87 % of Control; ROS Level, % of Control (K562 cell line; K562, 20 µM): 94.07 % of Control
5 | COc1ccc(C(=O)N2CCN(C(=O)c3cccc(C(=O)Nc4cccc(C(F)(F)F)c4)c3)CC2)cc1 [Compound 7, 3-(4-(4-Methoxybenzoyl)piperazine-1-carbonyl)-N-(3-(trifluoromethyl)phenyl)benzamide] | – | – | – | – | – | – | – | 72 to 74 | –
6 | CNC(=O)c1cc(Oc2ccc(NC(=O)c3ccc(C(=O)Nc4cc(-n5cnc(C)c5)cc(C(F)(F)F)c4)cc3)cc2)ccn1 [Compound 23, N1-(3-(4-methyl-1H-imidazol-1-yl)-5-(trifluoromethyl)phenyl)-N4-(4-((2-(methylcarbamoyl)pyridin-4-yl)oxy)phenyl)terephthalamide] | – | – | – | – | – | – | – | 299 to 300 | –
7 | Cc1cn(-c2cc(NC(=O)c3ccc(C(=O)Nc4cc(-n5cnc(C)c5)cc(C(F)(F)F)c4)cc3)cc(C(F)(F)F)c2)cn1 [Compound 22, N1,N4-bis(3-(4-methyl-1H-imidazol-1-yl)-5-(trifluoromethyl)phenyl)terephthalamide] | > 50 | > 50 | > 50 | > 50 | > 50 | > 50 | > 50 | 295 to 296 | –
8 | Cc1cn(-c2cc(NC(=O)c3ccc(C(=O)N4CCN(C(=O)c5cccc(F)c5)CC4)cc3)cc(C(F)(F)F)c2)cn1 [Compound 27, 4-(4-(3-fluorobenzoyl)piperazine-1-carbonyl)-N-(3-(4-methyl-1H-imidazol-1-yl)-5-(trifluoromethyl)phenyl)-benzamide] | 22.2 ± 2.12 | 26 ± 4.15 | 49.4 ± 0.67 | 38.6 ± 1.11 | > 50 | > 50 | 24.08 ± 0.07 | 110 to 113 | –
9 | CNC(=O)c1cc(Oc2ccc(NC(=O)Nc3ccc(Cl)c(C(F)(F)F)c3)cc2)ccn1 [Sorafenib, reference compound] | 2.44 ± 0.21 | 3.37 ± 0.42 | 8.62 ± 2.24 | 5.01 ± 0.14 | 12.5 ± 1.64 | 7.17 ± 0.5 | 3.48 ± 0.39 | – | inhibition at 10 µM (PDGFRα): 100%; inhibition at 10 µM (PDGFRβ): 100%; Apoptosis, % (cell cycle analysis) (K562 cells [7]; K562, 1 µM): 22.60%; G1, % (K562 cells [7]; K562, 1 µM): 36.50%; S, % (K562 cells [7]; K562, 1 µM): 7.72%; Apoptosis, % (cell cycle analysis) (K562 cells [7]; K562, 5 µM): 44.20%; G1, % (K562 cells [7]; K562, 5 µM): 33.87%; S, % (K562 cells [7]; K562, 5 µM): 30.14%; normal live cells (living cells) (K562 cells [8]; K562, 1 µM): 84.11%; early apoptotic cells (K562 cells [8]; K562, 5 µM): 36.2%; late apoptotic cells (K562 cells [8]; K562, 5 µM): 19.57%; normal live cells (living cells) (K562 cells [8]; K562, 5 µM): 42.32%; necrotic cells (K562 cells [8]; K562, 10 µM): 5.73%; normal live cells (living cells) (K562 cells [8]; K562, 10 µM): 26.41%; ROS Level, % of Control (K562 cell line; K562, 5 µM): 69.20 % of Control; ROS Level, % of Control (K562 cell line; K562, 10 µM): 79.03 % of Control; ROS Level, % of Control (K562 cell line; K562, 20 µM): 71.59 % of Control
10 | O=C(Nc1cccc(C(F)(F)F)c1)c1ccc(C(=O)N2CCN(C(=O)c3cccc(F)c3)CC2)cc1 [Compound 21, 4-(4-(3-Fluorobenzoyl)piperazine-1-carbonyl)-N-(3-(trifluoromethyl)phenyl)benzamide] | > 50 | > 50 | > 50 | > 50 | > 50 | > 50 | > 50 | – | –
11 | Cc1cn(-c2cc(NC(=O)c3ccc(C(=O)N4CCN(C(=O)c5ccccc5F)CC4)cc3)cc(C(F)(F)F)c2)cn1 [Compound 26, 4-(4-(2-fluorobenzoyl)piperazine-1-carbonyl)-N-(3-(4-methyl-1H-imidazol-1-yl)-5-(trifluoromethyl)phenyl)-benzamide] | 18.5 ± 0.73 | 26.4 ± 1.73 | 48.8 ± 1.17 | 44.3 ± 4.79 | > 50 | > 50 | 23.97 ± 0.03 | 142 to 145 | –
12 | COc1ccc(C(=O)N2CCN(C(=O)c3ccc(C(=O)Nc4cc(-n5cnc(C)c5)cc(C(F)(F)F)c4)cc3)CC2)cc1 [Compound 25, 4-(4-(4-methoxybenzoyl)piperazine-1-carbonyl)-N-(3-(4-methyl-1H-imidazol-1-yl)-5-(trifluoromethyl)-phenyl)benzamide] | – | – | – | – | – | – | – | 212 to 214 | –
